# Source: patent publication US20220177471A1, “N-1 BRANCHED ALKYL SUBSTITUTED IMIDAZO[4,5-C]QUINOLINE COMPOUNDS, COMPOSITIONS, AND METHODS” (3M INNOVATIVE PROPERTIES COMPANY, priority 2019, published 2022)
# Biological target: T1, human TLR8 (Homo sapiens, UniProt Q9NR97)
# T1 construct: host or cells: HEK293 (HEK-BLUE-hTLR8)
# T1 sequence (Q9NR97 27-1041): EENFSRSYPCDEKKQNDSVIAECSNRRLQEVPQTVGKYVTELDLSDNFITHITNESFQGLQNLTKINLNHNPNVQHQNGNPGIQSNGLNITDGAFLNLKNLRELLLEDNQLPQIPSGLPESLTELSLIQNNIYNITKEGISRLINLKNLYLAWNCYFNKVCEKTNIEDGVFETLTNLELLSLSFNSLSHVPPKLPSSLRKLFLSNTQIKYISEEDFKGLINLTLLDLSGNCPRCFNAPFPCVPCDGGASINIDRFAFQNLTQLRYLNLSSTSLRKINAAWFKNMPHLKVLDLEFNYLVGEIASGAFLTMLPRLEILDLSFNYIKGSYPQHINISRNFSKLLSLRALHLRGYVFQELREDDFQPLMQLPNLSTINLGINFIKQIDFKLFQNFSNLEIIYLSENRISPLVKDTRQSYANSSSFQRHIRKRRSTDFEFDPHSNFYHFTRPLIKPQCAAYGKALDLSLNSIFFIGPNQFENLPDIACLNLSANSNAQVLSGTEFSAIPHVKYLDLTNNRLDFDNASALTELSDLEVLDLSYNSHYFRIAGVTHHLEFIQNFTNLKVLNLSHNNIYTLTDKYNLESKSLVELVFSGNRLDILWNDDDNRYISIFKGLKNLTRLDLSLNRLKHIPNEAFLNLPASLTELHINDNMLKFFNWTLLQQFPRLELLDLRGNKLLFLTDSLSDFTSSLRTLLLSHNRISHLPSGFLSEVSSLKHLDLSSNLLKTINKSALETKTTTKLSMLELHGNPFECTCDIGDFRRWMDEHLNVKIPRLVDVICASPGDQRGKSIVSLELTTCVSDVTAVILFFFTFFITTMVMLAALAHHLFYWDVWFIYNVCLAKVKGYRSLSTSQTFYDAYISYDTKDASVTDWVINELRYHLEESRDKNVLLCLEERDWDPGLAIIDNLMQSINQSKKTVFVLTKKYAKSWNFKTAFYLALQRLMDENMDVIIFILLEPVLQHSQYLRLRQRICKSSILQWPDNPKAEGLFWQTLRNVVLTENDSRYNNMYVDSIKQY
# Assay: TLR activation, HEK-BLUE-hTLR8 SEAP reporter cells
# Format: cell-based
# Details: 16-20 hours, lowest concentration giving SEAP response at least 2x vehicle control, tested 0.01-30 micromolar
# Experimental: HEK-BLUE-hTLR7 or hTLR8 reporter cells were obtained from InvivoGen, San Diego, Calif. According to the manufacturer's description, these reporter cells were prepared by co-transfection of HEK293 cells with an inducible secreted embryonic alkaline phosphatase (SEAP) reporter gene and either the human TLR7 or TLR8 gene. The SEAP reporter gene was placed under the control of an IFN-β minimal promoter fused to five NF-κB and AP-1-binding sites. In the presence of a TLR ligand, activation of NF-κB and AP-1 occurs, resulting in a corresponding increase in SEAP levels.
# In the assay, the HEK cells were grown and maintained using standard cell culture techniques in a growth medium that contained Dulbecco's Modified Eagle Medium (ThermoFisher Scientific Incorporated, Waltham, Mass.) supplemented with 1% penicillin/streptomycin and 10% heat-inactivated Gibco fetal bovine serum (ThermoFisher Scientific). Each compound was solubilized in DMSO to create a 3 mM stock solution. The stock solution was then further diluted with the growth medium to prepare serial dilutions. Each test compound was tested at a concentration of 30, 10, 3.3, 1.1, 0.37, 0.12, 0.04, and 0.01 micromolar using a 96-well format with 5×10^4 cells and 200 microliters of growth medium per well.
# For each compound, hTLR7, hTLR8, and their respective null control HEK cells were screened. DMSO serially diluted into the growth medium served as the vehicle control. Cell culture supernatants containing the SEAP reporter were collected after an incubation period of 16-20 hours in a cell culture incubator (37° C. and 5% CO2), and either analyzed immediately or stored at −80° C. SEAP levels were measured using the colorimetric enzyme assay (QUANTI-BLUE (InvivoGen) according to manufacturer's instructions.
# Specifically, the minimum effective concentration of each compound (micromolar) was determined as the lowest concentration of the compound that produced a SEAP expression response at least 2× greater than that observed with the vehicle control wells.
row,MEC to Produce TLR Activation: TLR 8 [µM],SMILES
1,10,"CCC[C@@H](n1cnc2c(N)nc3ccccc3c21)C(C)(C)O [Example 13, (3R)-3-(4-aminoimidazo[4,5-c]quinolin-1-yl)-2-methyl-hexan-2-ol]"
2,>30,"C[C@H](n1cnc2c(N)nc3ccccc3c21)C(C)(C)F [Example 21, 1-[(1S)-2-fluoro-1,2-dimethyl-propyl]imidazo[4,5-c]quinolin-4-amine]"
3,>30,"C[C@H](n1cnc2c(N)nc3ccccc3c21)C(C)(C)O [Example 10, (3S)-3-(4-aminoimidazo[4,5-c]quinolin-1-yl)-2-methyl-butan-2-ol]"
4,>30,"CC(C)[C@H](C)n1cnc2c(N)nc3ccccc3c21 [Example 2, 1-[(1S)-1,2-dimethylpropyl]imidazo[4,5-c]quinolin-4-amine]"
5,>30,"CC(C)(O)Cn1cnc2c(N)nc3ccccc3c21 [Comparative Example 2, 1-(4-aminoimidazo[4,5-c]quinolin-1-yl)-2-methyl-propan-2-ol, reference compound]"
6,>30,"CCC[C@H](n1cnc2c(N)nc3ccccc3c21)C(C)(C)O [Example 14, (3S)-3-(4-aminoimidazo[4,5-c]quinolin-1-yl)-2-methyl-hexan-2-ol]"
7,>30,"CC[C@H](n1cnc2c(N)nc3ccccc3c21)C(C)(C)O [Example 12, (3S)-3-(4-aminoimidazo[4,5-c]quinolin-1-yl)-2-methyl-pentan-2-ol]"
8,>30,"CC(C)Cn1cnc2c(N)nc3ccccc3c21 [Comparative Example 1, 1-isobutylimidazo[4,5-c]quinolin-4-amine, reference compound]"
9,>30,"C[C@@H](n1cnc2c(N)nc3ccccc3c21)C(C)(C)F [Example 20, 1-[(1R)-2-fluoro-1,2-dimethyl-propyl]imidazo[4,5-c]quinolin-4-amine]"
10,>30,"CC(C)[C@@H](C)n1cnc2c(N)nc3ccccc3c21 [Example 1, 1-[(1R)-1,2-dimethylpropyl]imidazo[4,5-c]quinolin-4-amine]"
11,>30,"CC[C@@H](n1cnc2c(N)nc3ccccc3c21)C(C)(C)O [Example 11, (3R)-3-(4-aminoimidazo[4,5-c]quinolin-1-yl)-2-methyl-pentan-2-ol]"
12,>30,"C[C@@H](n1cnc2c(N)nc3ccccc3c21)C(C)(C)C [Example 3, 1-[(1R)-1,2,2-trimethylpropyl]imidazo[4,5-c]quinolin-4-amine]"
13,>30,"C[C@H](C1CCCCC1)n1cnc2c(N)nc3ccccc3c21 [Example 5, 1-[(1R)-1-cyclohexylethyl]imidazo[4,5-c]quinolin-4-amine]"
14,>30,"CC(C)C[C@@H](n1cnc2c(N)nc3ccccc3c21)C(C)(C)O [Example 17, (3R)-3-(4-aminoimidazo[4,5-c]quinolin-1-yl)-2,5-dimethyl-hexan-2-ol]"
15,>30,"C[C@@H](n1cnc2c(N)nc3ccccc3c21)C(C)(C)O [Example 9, (3R)-3-(4-aminoimidazo[4,5-c]quinolin-1-yl)-2-methyl-butan-2-ol]"
16,>30,"CC(C)C[C@H](n1cnc2c(N)nc3ccccc3c21)C(C)(C)O [Example 18, (3S)-3-(4-aminoimidazo[4,5-c]quinolin-1-yl)-2,5-dimethyl-hexan-2-ol]"
17,>30,"C[C@H](n1cnc2c(N)nc3ccccc3c21)C(C)(C)C [Example 4, 1-[(1S)-1,2,2-trimethylpropyl]imidazo[4,5-c]quinolin-4-amine]"
18,>30,"CCC(O)(CC)[C@@H](C)n1cnc2c(N)nc3ccccc3c21 [Example 19, (2R)-2-(4-aminoimidazo[4,5-c]quinolin-1-yl)-3-ethyl-pentan-3-ol]"
19,>30,"CCCC[C@H](C(C)C)n1cnc2c(N)nc3ccccc3c21 [Example 7, 1-[(1R)-1-isopropylpentyl]imidazo[4,5-c]quinolin-4-amine]"
20,>30,"CCCC[C@H](n1cnc2c(N)nc3ccccc3c21)C(C)(C)O [Example 16, (3S)-3-(4-aminoimidazo[4,5-c]quinolin-1-yl)-2-methyl-heptan-2-ol]"
21,10,"CCCC[C@@H](n1cnc2c(N)nc3ccccc3c21)C(C)(C)O [Example 15, (3R)-3-(4-aminoimidazo[4,5-c]quinolin-1-yl)-2-methyl-heptan-2-ol]"
22,>30,"CCCC[C@@H](n1cnc2c(N)nc3ccccc3c21)C(C)(C)C [Example 8, 1-[(1R)-1-tert-butylpentyl]imidazo[4,5-c]quinolin-4-amine]"
23,>30,"C[C@@H](C1CCCCC1)n1cnc2c(N)nc3ccccc3c21 [Example 6, 1-[(1S)-1-cyclohexylethyl]imidazo[4,5-c]quinolin-4-amine]"
